Where two headings read alike, the source gives them in different places. No end group written: not given here.
Tests used:
[1] = Collateral vessel presentation after femoral artery removal; format: in vivo, rats; conditions: 5-10 min after removal of femoral artery part; local 1 min bath (bepecin 10 μg/kg, L-arginine 100 mg/kg, L-NAME 5 mg/kg)
Excerpt: Bepecin has a particular beneficial effect after large blood vessel removal. Unlike L-NAME and L-arginine, bepecin rapidly bridges defect between the stumps of the vessel, thus even in the case of the worst scenario, rapidly reorganizing blood supply. Part of femoral artery in rats (between a. epigastrica caudalis and a. femoralis circumflexa lateralis) was removed in order to investigate collateral vessel presentation within vascular defect following formation of critical size vascular defect. Collateral vessel presentation within vascular defect was assessed according to the method described for microangiographic assessment in Cardiovasc Res. 1997 September; 35(3): 547-52. Thermographic imaging was performed using an infrared camera.

HSV-1 and HSV-2 = experiment: Newborn mice, intracerebral inoculation with HSV-1 and HSV-2; format: in vivo; conditions: lethally infected newborn mice; agents applied 48 or 72 hours after viral infection; bepecin 10 and 100 μg/kg, acyclovir 10 and 100 mg/kg
[2] = Anaphylactoid reaction induced by dextran and/or egg white; format: in vivo, rats, mouse; conditions: dextran and/or egg white i.v.; bepecin 10 μg, 1 μg, 10 ng, 10 pg/kg; clomipramine 20 mg/kg, cimetidine 10 mg/kg alone
[3] = Stability in water solutions (1 g/100 ml) at 50° C.; format: physicochemical; conditions: for Pentadecapeptide content decrement in water at 50° C./time (hours): 20: 20 hours; for Pentadecapeptide content decrement in water at 50° C./time (hours): 65: 65 hours; for Pentadecapeptide content decrement in water at 50° C./time (hours): 148: 148 hours; for Pentadecapeptide content decrement in water at 50° C./time (hours): 388: 388 hours; for Pentadecapeptide content decrement in water at 50° C./time (hours): start/0: start/0 hours
Method: (§1) This addition will be in the range from 0.5 mg to 3.0 mg per 1 mg of bepecin. […] The stability of bepecin salt with L-arginine in water solutions was determined after incubation of aqueous salt solutions in concentration 1 g/100 ml, at 50° C., and in a separate test in very stringent conditions: at 100° C., where the decomposition was determined after one hour.

[4] = Accelerated ageing at 50° C. and relative humidity of 65%; format: physicochemical
[5] = Stability in water at 100° C., 1 hour; format: physicochemical
Method: as §1

in vitro = conditions: artificial gastric juice with pepsin, 37° C.
[6] = 37° C.; for Pentadecapeptide content decrement (rel. %) in gastric juice at pH = 2.0, 2.5 hours: 150 min; for Pentadecapeptide content decrement (rel. %) in gastric juice at pH = 4.0, 6 hours: 360 min; for Pentadecapeptide content decrement (rel. %) in gastric juice at pH = 4.0, 7 hours: 420 min; for Pentadecapeptide content decrement (rel. %) in gastric juice at pH = 4.0, 8 hours: 480 min; for Pentadecapeptide content decrement (rel. %) in gastric juice at pH = 2.0, 1.5 hours: 90 min
[7] = 1 g/100 ml of water, 20° C., 253.7 nm, 70 min
[8] = simulated gastric fluid, 37° C.
Acute toxicity = format: in vivo, Wistar Albino rats; conditions: 1 g/kg body weight, intraperitoneally, intravenously or intragastrically
[9] = intravenously, orally or intraperitoneally, 10 ng to 100 mg/kg; cited from earlier work
[10] = Bleeding and thrombocytopenia after amputation; format: in vivo, rats; conditions: bepecin by itself
Method: Bepecin was administered intraperitoneally, intravenously or intragastrically (10 μg/kg, 10 ng/kg body weight).

[11] = pH 2, Pentadecapeptide content decrement (rel. %) in gastric juice at pH = 2.0, 1.0 hours, pH 2.0, 1.0 h
[12] = pH 2, Pentadecapeptide content decrement (rel. %) in gastric juice at pH = 2.0, 2.0 hours, pH 2.0, 2.0 h
[13] = pH 4, Pentadecapeptide content decrement (rel. %) in gastric juice at pH = 4.0, 3 hours, pH 4.0, 3 h
[14] = pH 2, Pentadecapeptide content decrement (rel. %) in gastric juice at pH = 2.0, 0.5 hours, pH 2.0
[15] = pH 3, Pentadecapeptide content decrement (rel. %) in gastric juice at pH = 3.0, 0.5 hours, pH 3.0
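Throughout, for Pentadecapeptide content decrement (rel. %) in gastric juice at pH = 2.0, 0 hours: peptide salt at 10 mg/5 ml incubated in artificial gastric juice (HCl, NaCl, pepsin 1.0 g/l) at the listed pH and 37° C, peptide content tracked over time.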
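Throughout, for Pentadecapeptide content decrement (rel. %) in gastric juice at pH = 2.0, 2.5 hours: peptide salt at 10 mg/5 ml incubated in artificial gastric juice (HCl, NaCl, pepsin 1.0 g/l) at the listed pH and 37° C, peptide content tracked over time.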
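Throughout, for Pentadecapeptide content decrement (rel. %) in gastric juice at pH = 3.0, 0 hours: peptide salt at 10 mg/5 ml incubated in artificial gastric juice (HCl, NaCl, pepsin 1.0 g/l) at the listed pH and 37° C, peptide content tracked over time.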
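Throughout, for Pentadecapeptide content decrement (rel. %) in gastric juice at pH = 3.0, 3.0 hours: peptide salt at 10 mg/5 ml incubated in artificial gastric juice (HCl, NaCl, pepsin 1.0 g/l) at the listed pH and 37° C, peptide content tracked over time.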

## COC(=O)[C@@H](N)CCCNC(=N)N[N+](=O)[O-] [L-NAME]
[1]
  Collateral vessel presentation within vascular defect: no collateral vessels are present

## N=C(N)NCCC[C@H](N)C(=O)O [L-arginine]
[1]
  Collateral vessel presentation within vascular defect: Tiny collateral vessels were present, yet without interconnections

## Nc1nc2c(ncn2COCCO)c(=O)[nH]1 [acyclovir]
HSV-1 and HSV-2
  Survival time (max.): 115 h
  Survival time (min.): 105 h

## CN/C(=N/CCSCc1nc[nH]c1C)NC#N [cimetidine]
[2]
  Effect on anaphylactoid reactions: only poorly effective or even ineffective

## CN(C)CCCN1c2ccccc2CCc2ccc(Cl)cc21 [clomipramine]
[2]
  Effect on anaphylactoid reactions: only poorly effective or even ineffective

## Bepecin L-Lysine Salt (1:3) [Lys-BPC]
[3]
  Pentadecapeptide content decrement in water at 50° C./time (hours): 20: 99.40%
  Pentadecapeptide content decrement in water at 50° C./time (hours): 65: 99.09%
  Pentadecapeptide content decrement in water at 50° C./time (hours): 148: 99.35%
  Pentadecapeptide content decrement in water at 50° C./time (hours): 388: 99.01%
  Pentadecapeptide content decrement in water at 50° C./time (hours): start/0: 99.07%
[4]; 0 day
  Pentadecapeptide content decrement in standing at 50° C. and relat. humidity 65%: 0 day: 99.47%
[4]; 10 days
  Pentadecapeptide content decrement in standing at 50° C. and relat. humidity 65%: 10 days: 99.24%
[4]; 30 days
  Pentadecapeptide content decrement in standing at 50° C. and relat. humidity 65%: 30 days: 99.27%
[4]
  Pentadecapeptide content decrement in standing at 50° C. and relat. humidity 65%: 60 days: 98.90%
  Pentadecapeptide content decrement in standing at 50° C. and relat. humidity 65%: 90 days: 99.28%

## GEPPPGKPADDAGLV [Arg-BPC, bepecin L-arginine salt (1:2)]
[5]; after 1 hour
  Pentadecapeptide content decrement in water at 100° C. - 1 hour: after 1 hour: 99.08% (unchanged!)
[5]; start
  Pentadecapeptide content decrement in water at 100° C. - 1 hour: start: 99.05%
In vitro; [11]
  remaining at 1 h: 13.5%
In vitro; pH 2, Pentadecapeptide content decrement (rel. %) in gastric juice at pH = 2.0, 1.5 hours, pH 2.0, 1.5 h
  remaining at 1.5 h, 10 mg/5 ml: 8.2%
In vitro; [12]
  remaining at 2 h: 6%
In vitro; pH 3, Pentadecapeptide content decrement (rel. %) in gastric juice at pH = 3.0, 4.0 hours, pH 3.0, 4.0 h
  remaining at 4 h, 10 mg/5 ml: 87.2%
In vitro; pH 3, Pentadecapeptide content decrement (rel. %) in gastric juice at pH = 3.0, 5.0 hours, pH 3.0, 5.0 h
  remaining at 5 h, 10 mg/5 ml: 84.9%
In vitro; [13]
  remaining at 3 h, 10 mg/5 ml: 98.7%
In vitro; pH 4, Pentadecapeptide content decrement (rel. %) in gastric juice at pH = 4.0, 4 hours, pH 4.0, 4 h
  remaining at 4 h, 10 mg/5 ml: 96.1%
In vitro; pH 4, Pentadecapeptide content decrement (rel. %) in gastric juice at pH = 4.0, 5 hours, pH 4.0, 5 h
  remaining at 5 h, 10 mg/5 ml: 89.8%
[6]
  Pentadecapeptide content decrement (rel. %) in gastric juice at pH = 2.0, 0 hours: 100 rel. %
  Pentadecapeptide content decrement (rel. %) in gastric juice at pH = 2.0, 2.5 hours: 4.9 rel. %
  Pentadecapeptide content decrement (rel. %) in gastric juice at pH = 3.0, 0 hours: 100 rel. %
[6]; 180 min
  Pentadecapeptide content decrement (rel. %) in gastric juice at pH = 3.0, 3.0 hours: 90.0 rel. %
[6]; pH 4.0
  Pentadecapeptide content decrement (rel. %) in gastric juice at pH = 4.0, 0 hours: 100 rel. %
  Pentadecapeptide content decrement (rel. %) in gastric juice at pH = 4.0, 6 hours: 84.6 rel. %
  Pentadecapeptide content decrement (rel. %) in gastric juice at pH = 4.0, 7 hours: 73.5 rel. %
  Pentadecapeptide content decrement (rel. %) in gastric juice at pH = 4.0, 8 hours: 67.2 rel. %
[3]
  Pentadecapeptide content decrement in water at 50° C./time (hours): 20: 98.97%
  Pentadecapeptide content decrement in water at 50° C./time (hours): 65: 99.04%
  Pentadecapeptide content decrement in water at 50° C./time (hours): 148: 99.10%
  Pentadecapeptide content decrement in water at 50° C./time (hours): 388: 99.01%
  Pentadecapeptide content decrement in water at 50° C./time (hours): start/0: 99.05%
[3]; aqueous salt solution 1 g/100 ml
  pH: 7.35
[7]
  Stability of aqueous solution under ultraviolet light: stable
[8]; [14]
  remaining at 0.5 h: 30.2%
[8]; [15]
  remaining at 0.5 h: 98.1%
[8]; pH 4, Pentadecapeptide content decrement (rel. %) in gastric juice at pH = 4.0, 1 hours, pH 4.0, 1 h
  remaining at 1 h: 99.9%
[8]; pH 4, Pentadecapeptide content decrement (rel. %) in gastric juice at pH = 4.0, 2 hours, pH 4.0, 2 h
  remaining at 2 h: 99.5%
[4]
  Pentadecapeptide content decrement in standing at 50° C. and relat. humidity 65%: 60 days: 98.96%
  Pentadecapeptide content decrement in standing at 50° C. and relat. humidity 65%: 90 days: 99.07%
Acute toxicity
  Acute toxicity: no toxicity and no adverse effects

## GEPPPGKPADDAGLV [BPC Na salt]
[6]
  Pentadecapeptide content decrement (rel. %) in gastric juice at pH = 2.0, 0 hours: 100 rel. %
  Pentadecapeptide content decrement (rel. %) in gastric juice at pH = 2.0, 1.5 hours: 4.4 rel. %
  Pentadecapeptide content decrement (rel. %) in gastric juice at pH = 2.0, 2.5 hours: 2.7 rel. %
  Pentadecapeptide content decrement (rel. %) in gastric juice at pH = 3.0, 0 hours: 100 rel. %
[6]; 180 min
  Pentadecapeptide content decrement (rel. %) in gastric juice at pH = 3.0, 3.0 hours: 40.2 rel. %
[6]; pH 4.0
  Pentadecapeptide content decrement (rel. %) in gastric juice at pH = 4.0, 0 hours: 100 rel. %
  Pentadecapeptide content decrement (rel. %) in gastric juice at pH = 4.0, 6 hours: 76.3 rel. %
  Pentadecapeptide content decrement (rel. %) in gastric juice at pH = 4.0, 7 hours: 68.2 rel. %
  Pentadecapeptide content decrement (rel. %) in gastric juice at pH = 4.0, 8 hours: 60.9 rel. %
[6]; pH 4.0, 3 h, 180 min
  Pentadecapeptide content decrement (rel. %) in gastric juice at pH = 4.0, 3 hours: 94.6 rel. %

## GEPPPGKPADDAGLV [BPC acetate]
In vitro; [14]
  remaining at 0.5 h, 10 mg/5 ml: 21.4%
In vitro; [15]
  remaining at 0.5 h, 10 mg/5 ml: 41.7%
[6]
  Pentadecapeptide content decrement (rel. %) in gastric juice at pH = 2.0, 0 hours: 100 rel. %
  Pentadecapeptide content decrement (rel. %) in gastric juice at pH = 2.0, 1.5 hours: 4.75 rel. %
  Pentadecapeptide content decrement (rel. %) in gastric juice at pH = 2.0, 2.5 hours: 2.1 rel. %
  Pentadecapeptide content decrement (rel. %) in gastric juice at pH = 3.0, 0 hours: 100 rel. %
[6]; pH 4.0
  Pentadecapeptide content decrement (rel. %) in gastric juice at pH = 4.0, 0 hours: 100 rel. %
  Pentadecapeptide content decrement (rel. %) in gastric juice at pH = 4.0, 6 hours: 48.8 rel. %
  Pentadecapeptide content decrement (rel. %) in gastric juice at pH = 4.0, 7 hours: 44.6 rel. %
  Pentadecapeptide content decrement (rel. %) in gastric juice at pH = 4.0, 8 hours: 38.0 rel. %
[8]; [11]
  remaining at 1 h: 8.2%
[8]; [12]
  remaining at 2 h: 2.46%
[8]; pH 3, Pentadecapeptide content decrement (rel. %) in gastric juice at pH = 3.0, 3.0 hours, pH 3.0, 3.0 h
  remaining at 3 h: 2.5%
[8]; [13]
  remaining at 3 h: 72.5%

## Gly Glu Pro Pro Pro Gly Lys Pro Ala Asp Asp Ala Gly Leu Val (GEPPPGKPADDAGLV; also: salts with basic amino acids) [Peptide bepecin]
[9]
  Toxic changes (LD50, acute, subchronic and chronic toxicity): did not induce any toxic changes

## H-GEPPPGKPADDAGLV-OH [Bepecin]
[10]
  Coagulation parameters: does not affect the coagulation parameters by itself

— patent US9850282B2, “Stable pentadecapeptide salts, a process for preparation thereof, a use thereof in the manufacture of pharmaceutical preparations and a use thereof in therapy” (priority 2013, dated 2017)
